Test results published in patent US20170368089A1, “COMPOSITION FOR PREVENTING OR TREATING COLITIS” (UNIVERSITY-INDUSTRY COOPERATION GROUP OF KYUNG HEE …, priority 2012, published 2017).

Key:
Myeloperoxidase (MPO) [1] = assay: MPO activity of colon tissue, TNBS acute colitis, third experiment; assay type: in vivo, male mice (C57BL/6); settings: Table 12; TNBS-treated mice, 10 mg/kg orally, 3 days
Method: Meanwhile, 0.1 ml of normal saline solution was orally administered to the normal group. Since then, from the next day, the sample dissolved in normal saline solution was orally administered in the volume that was decided in advance one time a day for 3 days. At the next day after completing the sample administration, the experimental animals were suffocated to death with carbon dioxide, and the colon from appendix to the region just before the anus was removed from the colon region. At this time, as a medicine sample, the experiments using the butanol-soluble fraction of the Anemarrhena asphodeloides Bunge extract, Mangiferin, and a combined extract were separately performed at a distance of time, respectively, and the effects of the medicine samples on preventing or treating colitis were reasonably analyzed based on the group supplied with normal saline solution instead of a specific medicine in the model animals with acute colitis induced by TNBS for each of the experiments. […] Since then, the homogenized colon tissue was centrifuged under the conditions of 4° C. and 13000 rpm for 15 minutes, and then, the supernatant thereof was obtained. […] Since then, 100 μl of a stop solution was added to stop the reaction, and then, the absorbance was measured at 450 nm using an ELISA reader.

IL-6 = IL-6 expression in colon tissue (ELISA), TNBS colitis, second experiment; assay type: in vivo, ICR male mice; settings: Table 9, extract-based samples, TNBS-treated mice, 10 mg/kg orally, 3 days
Method: Among the experimental groups, one group was set as a normal group, and for the experimental animals in other groups, colitis was induced with 2,4,6-trinitrobenzenesulfonic acid (TNBS). In detail, after lightly anesthetizing the experimental animals with ether, 0.1 ml of the solution prepared by mixing […] of 2,4,6-Trinitrobenzene sulfonic acid (NBS) solution with 50% ethanol was injected into the colon through the anus using a syringe having 1 ml volume and oval point, respectively; and then, the syringe was vertically picked up, and then, maintained for 30 seconds to induce the inflammation. Meanwhile, 0.1 ml of normal saline solution was orally administered to the normal group. Since then, from the next day, the sample dissolved in normal saline solution was orally administered in the volume that was decided in advance one time a day for 3 days. […]
250 μl of RIPA butter including protease inhibitor cocktail was added to 100 mg of the colon tissue of experimental animal, and then, the colon tissue was homogenized. […] While the supernatant was stored at −80° C., the expression amounts of IL-1 beta, IL-6, and TNF-alpha were measured using a 96-well ELISA plate kits (Pierce Biotechology, Inc., Rockford, Ill., USA).

Myeloperoxidase (MPO) [2] = assay: MPO activity of colon tissue (mouse MPO ELISA kit), TNBS colitis, first experiment; assay type: in vivo, ICR male mice; settings: TNBS-treated mice, 10 mg/kg orally, 3 days
Method: Among the experimental groups, one group was set as a normal group, and for the experimental animals in other groups, colitis was induced with 2,4,6-trinitrobenzenesulfonic acid (TNBS). In detail, after lightly anesthetizing the experimental animals with ether, 0.1 ml of the solution prepared by mixing […] of 2,4,6-Trinitrobenzene sulfonic acid (NBS) solution with 50% ethanol was injected into the colon through the anus using a syringe having 1 ml volume and oval point, respectively; and then, the syringe was vertically picked up, and then, maintained for 30 seconds to induce the inflammation. Meanwhile, 0.1 ml of normal saline solution was orally administered to the normal group. Since then, from the next day, the sample dissolved in normal saline solution was orally administered in the volume that was decided in advance one time a day for 3 days. At the next day after completing the sample administration, the experimental animals were suffocated to death with carbon dioxide, the colon from appendix to the region just before the anus was removed from the colon region.
200 μl of lysis buffer was added to 100 mg of colon tissue, and then, the colon tissue was homogenized. Since then, the homogenized colon tissue was centrifuged under the conditions of 4° C. and 13000 rpm for 15 minutes, and then, the supernatant thereof was obtained. In the supernatant, the MPO activity was measured using a mouse MPO assay ELISA kit (Hbt HK210, USA). 100 μl of the supernatant was added in a 96 well plate, and then, reacted at room temperature for 1 hour. After completing the reaction, the plate was overturned and emptied; was repeatedly washed three times with 200 μl of washing buffer solution; 100 μl of diluted tracer was added thereto; and then the reaction was performed at room temperature for 1 hour. After completing the reaction, the plate was overturned and emptied; and then each well in the plate was washed using 200 μl of washing buffer solution. After repeatedly performing the washing processes three times using 200 μl of washing buffer solution, 100 μl of diluted streptavidin-peroxidase conjugate was added thereto, and then, the reaction was performed at room temperature for 1 hour. After completing the reaction, the plate was overturned and emptied, and then, each well in the plate was washed with 200 μl of washing buffer solution. After the washing processes were repeatedly performed three times using 200 μl of washing buffer solution, 100 μl of TMB substrate solution was added thereto; the plate was wrapped in an aluminum foil to block out the light; and then, the reaction was performed at room temperature for 30 minutes. Since then, 100 μl of a stop solution was added to stop the reaction, and then, the absorbance was measured at 450 nm using an ELISA reader.

## Nc1ccc(O)c(C(=O)O)c1 [mesalazine, Mesalazine]
Myeloperoxidase (MPO) [1]
  MPO activity (Percentage to group supplied with normal saline solution after treating TNBS): 47.8%
IL-6
  IL-6 conc.: 1.32 ± 0.11 pg/mg
Myeloperoxidase (MPO) [2]; Table 2 (group 1)
  MPO activity: 1.8 ± 0.2 μUnit/mg
Myeloperoxidase (MPO) [2]; Table 3 (group 2)
  MPO activity: 0.2 ± 0.1 μUnit/mg
